Data from publication PMC10145651, “Modulation of the 5-Lipoxygenase Pathway by Chalcogen-Containing Inhibitors of Leukotriene A4 Hydrolase” (International Journal of Molecular Sciences, 2023).
Entries after “also recorded” stand apart in the source; their conditions may differ.

Assays:
[1] = target: T1, recombinant soluble epoxide hydrolase (sEH) (Homo sapiens, UniProt P34913); assay: Inhibition assay with soluble epoxide hydrolase (PHOME); assay type: biochemical; settings: for effect on the activity of recombinant soluble epoxide hydrolase (sEH): 50 μM PHOME
T1 construct: made in house
T1 sequence (P34913 1-555): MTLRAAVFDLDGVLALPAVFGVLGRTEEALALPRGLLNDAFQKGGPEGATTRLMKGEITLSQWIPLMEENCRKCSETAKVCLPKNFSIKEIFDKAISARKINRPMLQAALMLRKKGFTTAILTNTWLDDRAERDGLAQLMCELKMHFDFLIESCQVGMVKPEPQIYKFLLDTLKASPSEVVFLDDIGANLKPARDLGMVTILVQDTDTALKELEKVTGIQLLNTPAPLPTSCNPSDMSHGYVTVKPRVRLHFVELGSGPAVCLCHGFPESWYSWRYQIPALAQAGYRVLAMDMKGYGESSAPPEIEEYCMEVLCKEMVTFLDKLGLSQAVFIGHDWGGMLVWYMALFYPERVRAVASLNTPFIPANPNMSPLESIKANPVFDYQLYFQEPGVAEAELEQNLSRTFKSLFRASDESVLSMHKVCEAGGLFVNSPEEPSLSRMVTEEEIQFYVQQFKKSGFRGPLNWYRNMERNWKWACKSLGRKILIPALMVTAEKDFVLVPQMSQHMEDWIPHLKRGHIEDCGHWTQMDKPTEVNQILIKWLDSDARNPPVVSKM
Protocol: The human recombinant soluble epoxide hydrolase (sEH) was expressed and purified as described before.
Pre-incubation with 0.5 µg/mL of sEH and test compounds or 0.1% (v/v) vehicle was performed in 25 mM Tris-HCl buffer (pH 7.0) containing 0.1 mg/mL bovine serum albumin at room temperature for 10 min. Reaction was initiated with 50 μM PHOME, a non-fluorescent compound that is enzymatically converted into fluorescent 6-methoxy-naphtaldehyde, at room temperature for 60 min. Reactions were stopped with 200 mM ZnSO4 and fluorescence signals were recorded at 330 nm/465 nm (ex/em). If required, a possible fluorescence of test compounds was subtracted from the read-out.

LTA4H [2] = target: T2, LTA4H (Homo sapiens, UniProt P09960); assay: Aminopeptidase assay of LTA4H with the PGP substrate; assay type: biochemical; design: made in house; host or cells: Escherichia coli JM101; settings: 800 μM PGP, 0–100 μM inhibitor
T2 sequence (P09960 1-611): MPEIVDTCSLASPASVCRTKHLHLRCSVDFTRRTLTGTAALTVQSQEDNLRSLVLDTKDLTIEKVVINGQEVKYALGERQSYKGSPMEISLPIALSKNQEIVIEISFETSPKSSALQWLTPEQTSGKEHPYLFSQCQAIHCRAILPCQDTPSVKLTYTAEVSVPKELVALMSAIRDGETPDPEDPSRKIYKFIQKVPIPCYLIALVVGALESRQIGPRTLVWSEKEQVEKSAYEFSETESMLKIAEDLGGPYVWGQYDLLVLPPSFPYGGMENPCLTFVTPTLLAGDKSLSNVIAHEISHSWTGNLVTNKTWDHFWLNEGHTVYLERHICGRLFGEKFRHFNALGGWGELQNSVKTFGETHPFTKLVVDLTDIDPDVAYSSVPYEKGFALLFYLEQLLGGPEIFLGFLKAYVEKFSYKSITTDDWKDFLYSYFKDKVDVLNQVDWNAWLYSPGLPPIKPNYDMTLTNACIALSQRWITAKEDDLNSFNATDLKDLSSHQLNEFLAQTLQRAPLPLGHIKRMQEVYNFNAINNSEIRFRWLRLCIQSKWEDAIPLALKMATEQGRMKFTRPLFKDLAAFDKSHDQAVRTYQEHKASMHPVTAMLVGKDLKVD
Protocol: The reaction was stopped by addition of 150 μL of acetic acid. To detect and quantify released N-terminal proline, incubations with 150 μL of ninhydrin solution (25 mg/mL) were carried out at 100 °C for 45 min. Samples were cooled down and purple-colored ninhydrin conjugates were extracted with 350 μL toluene and the upper phase was transferred to a polypropylene 96-well plate (Greiner Bio-One, Kremsmünster, Austria). All incubations were carried out in triplicates and absorbance was measured at 495 nm using a TECAN Infinite M200 plate reader. Specific peptidase activities were determined based on the standard curve of free L-proline (Figure S10).

LTA4H [3] = target: T2, LTA4H; design: made in house; host or cells: Escherichia coli JM101; method as in PMID 24591641; settings: previously demonstrated; cited from earlier work

effect on the activity of soluble epoxide hydrolase (sEH) at 10 µM ([1]; 10 µM inhibitor) | SMILES | effect on the activity of recombinant soluble epoxide hydrolase (sEH) [1] | effect on the cleavage of the PGP tripeptide by recombinant LTA4H (LTA4H [2]) | effect on PGP cleavage by LTA4H (LTA4H [3])
– | Nc1nc(-c2ccc(Cc3ccccc3)cc2)c[se]1 [TTSe, 4-(4-benzylphenyl) selenazol-2-amine] | did not have any effect; also recorded: do not affect | did not influence | –
attenuated | Nc1nc(-c2ccc(Cc3ccccc3)cc2)co1 [TTO, 4-(4-benzylphenyl) oxazol-2-amine] | at higher concentrations may affect | did not influence | –
– | Nc1nc(-c2ccc(Cc3ccccc3)cc2)cs1 [ARM1, 4-(4-benzylphenyl) thiazol-2-amine, reference compound] | did not have any effect; also recorded: do not affect | – | remains unaffected
